From publication PMC6405172, “In vitro activity and mode of action of phenolic compounds on Leishmania donovani” (PLoS Neglected Tropical Diseases, 2019)
Read-outs that look alike come from different tables or passages of the source.

Experiments:
[1] = test system: Leishmania donovani intracellular amastigotes; assay: Intracellular amastigote assay in infected RAW 264.7 cells; type: cell-based; conditions: for Selectivity Index (CC50/IC50), amastigotes: CC50 Raw 264.7 / IC50 intracellular amastigotes; for IC50: intracellular amastigotes in RAW 264.7 cells, 48 hours, read-out: Amastigotes IC50 (μM) ± SD
Experimental: (§1) Amastigote cultures were prepared as reported by Jain and colleagues. Briefly, Raw 264.7 cells (4 x 10^7 cells) were seeded in 4 chamber slides and 1 x 10^7 cells in 96 well plates and incubated for 24 hours at 37°C in 5% CO2. The RAW 264.7 cells were infected with metacyclic promastigotes (1 x 10^8 cells) at an infection ratio of 1:10 macrophage: parasites and incubated for 24 hours at 37°C in 5% CO2. The overlying medium was removed, and the monolayer intracellular amastigotes were carefully washed four times with serum free M199 to remove free parasites. Freshly prepared M199 containing 10% FBS and the test compounds at concentrations ranging from 0–50 μg/mL were added to the infected cells and incubated for 48 hours at 37°C in 5% CO2. Triplicate incubations were performed in all the experiments. The chamber slides were washed thrice after incubation with M199 without FBS. The slides were then fixed in absolute methanol for 30 sec, rehydrated in 1x PBS for 5 min and stained with DAPI for 15 min. The slides were viewed by fluorescence microscopy and the number of infected macrophages counted using ImageJ Software to determine the infectivity index and IC50 values for amastigotes.
The infected RAW 264.7 cells in the 96 wells microtiter plates were also incubated for 48 hours and washed thrice as above. Sodium dodecyl sulfate (SDS) of concentration 0.05% was added to the wells for 30 sec for controlled lysis with M199 and 10% FBS. After the 30 sec, M199 with 10% FBS was added and the plates incubated at 25°C for 72 hours for the differentiation of the rescued amastigotes to promastigotes. Following incubation, the amastigotes were subjected to MTT assay and the absorbance obtained were used to estimate IC50 values of the compounds against the amastigote forms.

[2] = test system: L. donovani promastigotes; assay: Morphology analysis (DAPI, microscopy); type: cell-based, Leishmania donovani; conditions: 24 hours; for parasites with rounded morphology, aggregated kinetoplast and nuclear DNA: 2x IC50
Experimental: The cell pellets were then washed twice and resuspended in 1x PBS. The cells were then allowed to settle on poly-L-lysine coated slides and then rinsed with 1x PBS. Tris-HCl (100 mM) pH 7.5 in 1x PBS was used to block the PFA for 10 minutes. DAPI stain (0.1μg/mL) was added followed by one wash in 1x PBS. Coverslips were mounted onto the slides using Vectashield mounting media and observed under the Olympus fluorescent microscope to detect any phenotypic changes in L. donovani promastigotes. The total number of parasites was determined by direct counting of parasites per field, using ImageJ Software. The frequency of parasites was visually determined by counting parasites that had any abnormalities in their structure compared to the untreated control.

[3] = test system: L. donovani promastigotes; assay: Promastigote mitochondria integrity (MitoTracker Red CMXROS); type: cell-based, Leishmania donovani; conditions: 24 hours; 2x IC50 (amphotericin B 1/2 IC50)
Experimental: After incubation, the promastigotes were harvested and resuspended in serum-free M199/1%BSA. MitoTracker Red CMXROS (a cationic fluorescent dye that labels the mitochondria within live cells) at 100 nM was added and incubated for 30 min. Parasites were washed once with serum-free M199/1% BSA, pelleted by centrifugation at 1500 rpm for 10 min, resuspended in 1x vPBS and 6% paraformaldehyde and incubated at 4°C for 1 hour. The promastigote pellets were washed twice and resuspended in 1xPBS. The parasites were then allowed to settle on poly-L-lysine coated slides and DAPI stain (0.1μg/mL) was added followed by one wash in 1x PBS. Coverslips were mounted onto the slides using Vectashield mounting media and observed under the Olympus fluorescent microscope to detect any abnormalities in the structure of the mitochondria. The total number of parasites was determined by direct counting of parasites per field, using ImageJ Software. Parasites with distorted mitochondria were visually determined by counting parasites that had any abnormalities in the structure of the mitochondria compared to the untreated control.

[4] = test system: L. donovani promastigotes; assay: Cell cycle analysis by flow cytometry; type: cell-based, Leishmania donovani; conditions: 24 hours; for decrease in the number of parasites at the M phase / increase in G0/G1 cells: 2x IC50 (amphotericin B 1/2 IC50); for increase in G0/G1 cells: versus untreated 34.6%
Experimental: Cell cycle analysis of treated and untreated L. donovani promastigotes was performed using flow cytometry. […] The fixed cells were harvested, resuspended in 1x PBS for 1 min and washed twice in 1x PBS. Staining solution (Guava cell cycle reagent) was added and incubated at room temperature for 30 min. The percentage cell count in G0, G1, S, G2 and M phases of the cell cycle were determined with BD LSR Fortessa™^. X-20 analyzer (BD Biosciences) and data was analyzed with FlowJo software.

[5] = test system: Leishmania iron transporter 1 (LIT1); assay: RT-qPCR mRNA expression of LIT1; type: cell-based, Leishmania donovani; conditions: promastigotes, 24 hours; for LIT1 Relative quantity: Fig 7A
Experimental: (§2) Promastigotes (1 x 10^7 cells) were separately treated with rosmarinic acid, apigenin, amphotericin B and deferoxamine, harvested after 24 hours incubation at 25°C. The parasites were then pelleted by centrifugation at 239 × g for 10 min and the pellet was re-suspended in 1 mL TRIzol. Samples were incubated overnight at -80°C and total RNA was extracted as described by the manufacturer’s protocol using Quick-RNA MiniPrep Plus (Zymo Research, USA). Purity of total RNA was determined to be approximately 2.0 using a Nanodrop. The oligonucleotide primers for the amplification of the iron dependent enzymes—ribonucleotide reductase (RNR) (3’[…] and 5’CAACAACTTCTGCGCATCG), iron superoxide dismutase A (FeSOD) (3’[…] and 5’[…]) and Leishmania iron transporter 1 (LIT1) (3’[…] and 5’ […]) were designed using sequences of Leishmania reference genome from tritrypdb.org (http://tritrypdb.org/tritrypdb/) and Primer 3 software. The oligonucleotide primers used in amplifying the housekeeping gene Histone 2A were (3’ […] and 5’[…]). The RT-qPCR reaction was conducted as described by manufacturer’s protocol with final concentrations of oligonucleotide primers as 0.4 μM, 1x Luna Universal One-Step Reaction mix, 1x Luna WarmStart RT Enzyme Mix and template RNA ≤ 1 μg. All the RT-PCR products were standardized with respect to the endogenous control, Histone 2A. The levels of the mRNA transcripts were obtained using the QuantStudio 5 Real-Time PCR System (Applied Biosystems). The data represent three independent experiments done in triplicate and a fold change in gene expression of >2 was considered significant.

[6] = test system: iron superoxide dismutase A (FeSOD); assay: RT-qPCR mRNA expression of FeSOD; type: cell-based, Leishmania donovani; conditions: promastigotes, 24 hours; for FeSOD Relative quantity: Fig 7B
Experimental: as §2

[7] = test system: ribonucleotide reductase (RNR); assay: RT-qPCR mRNA expression of RNR; type: cell-based, Leishmania donovani; conditions: promastigotes, 24 hours; for RNR Relative quantity: Fig 7C
Experimental: as §2

[8] = test system: Leishmania donovani intracellular amastigotes; assay: Infectivity index of infected macrophages (DAPI, fluorescence microscopy); type: cell-based; conditions: 48 hours; for infectivity values (infectivity index): concentration not given
Experimental: as §1

| Compound | Selectivity Index (CC50/IC50), amastigotes [1] | IC50 ([1]; Leishmania donovani, RAW264.7) [µM] | parasites with rounded morphology, aggregated kinetoplast and nuclear DNA [2] [%] | promastigotes with mitotracker dye accumulating in the cytoplasm (distorted mitochondrion) [3] [%] | decrease in the number of parasites at the M phase ([4]; versus untreated) [%] | increase in G0/G1 cells [4] [%] | LIT1 mRNA expression versus untreated [5] | LIT1 Relative quantity [5] | FeSOD mRNA expression versus untreated [6] | FeSOD Relative quantity [6] | decrease in the expression of RNR [7] [% reduction] | RNR Relative quantity [7] | infectivity values (infectivity index) [8] | increased expression of RNR [7] [fold] | IC50 ([1]; Leishmania donovani, RAW264.7, 48 h) [µM] | IC50 [1] [µM] | parasites showing irregular shape, severe distortion in the cell membrane, loss of kinetoplast DNA ([2]; half the IC50) [%] | change in the number of parasites at the S phase ([4]; versus untreated) | infectivity index ([8]; 3.12 μg/mL) |
| --- | --- | --- | --- | --- | --- | --- | --- | --- | --- | --- | --- | --- | --- | --- | --- | --- | --- | --- | --- |
| O=C(/C=C/c1ccc(O)c(O)c1)O[C@H](Cc1ccc(O)c(O)c1)C(=O)O [Rosmarinic acid, rosmarinic acid] | 12.70 | 19.21 ± 0.01 | 70 | 70 | 8.0 | 7.1 | 3 fold | 3.0 | did not significantly change | 1.3 | 90 | 0.1 | 140 | – | – | – | – | – | – |
| O=c1cc(-c2ccc(O)cc2)oc2cc(O)cc(O)c12 [Apigenin, apigenin] | 5.21 | 45.66 ± 0.01 | – | 75.8 | 6.8 | 8 | no observed change | 0.8 | did not significantly change | 0.7 | – | 2.5 | 152.2 | 3 | – | – | – | – | – |
| CC(=O)N(O)CCCCCNC(=O)CCC(=O)N(O)CCCCCNC(=O)CCC(=O)N(O)CCCCCN [Deferoxamine, deferoxamine, reference compound] | 0.73 | 36.74 ± 0.01 | 90 | 81 | 7.7 | 7 | 125 fold | 125 | 5 fold | 5.0 | 80 | 0.2 | 177 | – | – | – | – | – | – |
| C[C@@H]1[C@H](O)[C@@H](C)/C=C/C=C/C=C/C=C/C=C/C=C/C=C/[C@H](O[C@@H]2O[C@H](C)[C@@H](O)[C@H](N)[C@@H]2O)C[C@@H]2O[C@](O)(C[C@@H](O)C[C@@H](O)[C@H](O)CC[C@@H](O)C[C@@H](O)CC(=O)O[C@H]1C)C[C@H](O)[C@H]2C(=O)O [Amphotericin B, reference compound] | 2.40 | – | – | 99 | – | 13.1 | 5 fold | 4.7 | did not significantly change | 0.7 | – | 3.2 | – | 3 | 6.491 ± 0.03 | 6.49 ± 0.03 | 90 | significant increase | 56 |
